Results as given in US10596164B2, “Anti-clostridium compounds” (Nederlandse Organisatie voor …, priority 2014, dated 2020).
≈ marks a conversion by molar mass, not a printed value. Like-named read-outs stand apart in the source and are kept apart here. Marks after values point to notes of the source that are not given here.

Columns and labels:
[1] = system: Staphylococcus aureus ATCC 6538; assay: MIC test with asymmetrical compounds on S. aureus; format: cell-based
Protocol: (§1) Growth inhibition experiments were performed according to the following protocol: […] Microtiter plate wells were filled with 495 microliter of this suspension to which 5 microliter of selected compounds dissolved in DMSO was added (final concentration of each compound was 10 microgram per ml). This was all performed in an anaerobic cabinet. After filling the microtiter plate was sealed and incubated for 22 hours at 37° C. Inhibiting compounds were selected by visually determining growth inhibition. According to the same protocol as in Example 3 asymmetrical compounds were tested on their inhibitory effect of C. difficile, but also on other bacterial species, such as S. aureus and B. cereus. In the below tables the compounds and the MIC values that have been found for the various micro-organisms are listed. In the tests described in Table 4 and 5 the medium indicated as 'flora' is the SIEM medium described in […], Schols H A, Nauta A, Schoterman […]. High-throughput analysis of the impact of antibiotics on the human intestinal microbiota composition.

[2] = system: Bacillus cereus ATCC 11778; assay: MIC test with asymmetrical compounds on B. cereus; format: cell-based
Protocol: as §1

[3] = system: C. difficile ATCC 43599 vegetative cells; assay: MIC test with asymmetrical compounds on C. difficile vegetative cells; format: cell-based, Clostridium difficile; conditions: for MIC: Clostridioides difficile; for MIC Veg. cells: Table 3
Protocol: as §1

[4] = system: C. difficile ATCC 43599 spores; assay: MIC test with asymmetrical compounds on C. difficile spores; format: cell-based, Clostridium difficile; conditions: for MIC: Clostridioides difficile; for MIC spores: Table 3
Protocol: as §1

[5] = ATCC6538, Table 5, read-out: MIC S. aureus ATCC 6538
[6] = ATCC11778, Table 5, read-out: MIC B. cereus ATCC 11778
[7] = ATCC43599, 22 h, Table 4, SAB model medium, tested concentrations 1.2 μg/ml-0.03 μg/ml if not indicated otherwise, read-out: MIC veg. cells SAB model medium
[8] = ATCC43599, Table 3, vegetative cells, tested concentrations 10 μg/ml-0.003 μg/ml if not indicated otherwise, read-out: MIC Veg. cells
[9] = ATCC43599, Table 4, flora (SIEM) medium, tested concentrations 1.2 μg/ml-0.03 μg/ml if not indicated otherwise, read-out: MIC veg. cells flora
[10] = ATCC43599, 22 h, Table 4, SAB model medium, tested concentrations 1.2 μg/ml-0.03 μg/ml if not indicated otherwise, read-out: MIC spores SAB model medium
[11] = ATCC43599, Table 3, spores, tested concentrations 10 μg/ml-0.003 μg/ml if not indicated otherwise, read-out: MIC spores
[12] = ATCC43599, Table 4, flora (SIEM) medium, tested concentrations 1.2 μg/ml-0.03 μg/ml if not indicated otherwise, read-out: MIC spores flora
[13] = vegetative cells, tested concentrations 10 μg/ml-0.003 μg/ml if not indicated otherwise
[14] = Table 4, SAB model medium, tested concentrations 1.2 μg/ml-0.03 μg/ml if not indicated otherwise
[15] = Table 4, flora (SIEM) medium, tested concentrations 1.2 μg/ml-0.03 μg/ml if not indicated otherwise
[16] = spores, tested concentrations 10 μg/ml-0.003 μg/ml if not indicated otherwise

Structure (SMILES) | MIC [1, 5] [µg/mL] | MIC [2, 6] [µg/mL] | MIC [3, 7] [µg/mL] | MIC [3, 8] [µg/mL] | MIC [3, 9] [µg/mL] | MIC [4, 10] [µg/mL] | MIC [4, 11] [µg/mL] | MIC [4, 12] [µg/mL] | further results
O=C1NC(=O)c2ccc3c4c(ccc1c24)C(=O)N(Cc1cccnc1)C3=O [20141155PBmol13] | > 100 | > 100 |  |  |  |  |  |  | 
O=C1NC(=O)c2ccc3c4c(ccc1c24)C(=O)N(CCO)C3=O [20141155PBmol57] | 40 (≈ 129 µM) | 4 (≈ 12.9 µM) | 0.3 to 0.6 (≈ 0.967 to 1.93 µM) | 0.15 to 0.3 (≈ 0.483 to 0.967 µM) | 0.07 to 0.15 (≈ 0.226 to 0.483 µM) | 0.3 to 0.6 (≈ 0.967 to 1.93 µM) | 0.15 to 0.3 (≈ 0.483 to 0.967 µM) | 0.6 to 1.2 (≈ 1.93 to 3.87 µM) | 
O=C1NC(=O)c2ccc3c4c(ccc1c24)C(=O)N(c1ccccn1)C3=O [20141155PBmol18] | 40 (≈ 117 µM) | 4 (≈ 11.7 µM) | 0.07 to 0.15 (≈ 0.204 to 0.437 µM) | 0.07 to 0.15 (≈ 0.204 to 0.437 µM) | 0.15 to 0.3 (≈ 0.437 to 0.874 µM) | 0.07 to 0.15 (≈ 0.204 to 0.437 µM) | 0.07 to 0.15 (≈ 0.204 to 0.437 µM) | 0.3 to 0.6 (≈ 0.874 to 1.75 µM) | 
O=C1NC(=O)c2ccc3c4c(ccc1c24)C(=O)N(CC1CCCO1)C3=O (stereo not shown) [20141155PBmol30] | > 100 | > 100 | 0.03 to 0.07 (≈ 0.0856 to 0.2 µM) | 0.03 to 0.07 (≈ 0.0856 to 0.2 µM) | 0.3 to 0.6 (≈ 0.856 to 1.71 µM) | 0.03 to 0.07 (≈ 0.0856 to 0.2 µM) | 0.01 to 0.03 (≈ 0.0285 to 0.0856 µM) | 0.3 to 0.6 (≈ 0.856 to 1.71 µM) | 
COc1ccc(OC)c(N2C(=O)c3ccc4c5c(ccc(c35)C2=O)C(=O)NC4=O)c1 [20141155PBmol46] | 10 (≈ 24.9 µM) | 4 (≈ 9.94 µM) | 0.07 to 0.15 (≈ 0.174 to 0.373 µM) | 0.07 to 0.15 (≈ 0.174 to 0.373 µM) | 0.6 to 1.2 (≈ 1.49 to 2.98 µM) | 0.07 to 0.15 (≈ 0.174 to 0.373 µM) | 0.03 to 0.07 (≈ 0.0746 to 0.174 µM) | 0.6 to 1.2 (≈ 1.49 to 2.98 µM) | 
O=C1c2ccc3c4c(ccc(c24)C(=O)N1CCO)C(=O)N(CCO)C3=O [A0547/0025269] |  |  | 0.6 to 1.2 (≈ 1.69 to 3.39 µM) | 0.3 to 0.6 (≈ 0.847 to 1.69 µM) | 0.3 to 0.6 (≈ 0.847 to 1.69 µM) | 0.3 to 0.6 (≈ 0.847 to 1.69 µM) | 0.3 to 0.6 (≈ 0.847 to 1.69 µM) | 0.6 to 1.2 (≈ 1.69 to 3.39 µM) | 
Cc1ccc(C)c(N2C(=O)c3ccc4c5c(ccc(c35)C2=O)C(=O)NC4=O)c1 [20141155PBmol23] | > 100 | 100 (≈ 270 µM) | 0.07 to 0.15 (≈ 0.189 to 0.405 µM) | 0.07 to 0.15 (≈ 0.189 to 0.405 µM) | 0.3 to 0.6 (≈ 0.81 to 1.62 µM) | 0.07 to 0.15 (≈ 0.189 to 0.405 µM) | 0.03 to 0.07 (≈ 0.081 to 0.189 µM) | > 1.2 | 
CC(=O)c1cccc(N2C(=O)c3ccc4c5c(ccc(c35)C2=O)C(=O)NC4=O)c1 [20141155PBmol17] | > 100 | 4 (≈ 10.4 µM) | 0.03 to 0.07 (≈ 0.0781 to 0.182 µM) | 0.01 to 0.03 (≈ 0.026 to 0.0781 µM) | 0.3 to 0.6 (≈ 0.781 to 1.56 µM) | 0.03 to 0.07 (≈ 0.0781 to 0.182 µM) | 0.01 to 0.03 (≈ 0.026 to 0.0781 µM) | > 1.2 | 
CN[C@H](CC(C)C)C(=O)N[C@H]1C(=O)N[C@@H](CC(N)=O)C(=O)N[C@H]2C(=O)N[C@H]3C(=O)N[C@H](C(=O)N[C@H](C(=O)O)c4cc(O)cc(O)c4-c4cc3ccc4O)[C@H](O)c3ccc(c(Cl)c3)Oc3cc2cc(c3O[C@@H]2O[C@H](CO)[C@@H](O)[C@H](O)[C@H]2O[C@H]2C[C@](C)(N)[C@H](O)[C@H](C)O2)Oc2ccc(cc2Cl)[C@H]1O [Vancomycin, reference compound] |  |  |  |  |  |  |  |  | MIC ([3]; ATCC43599, 22 h, read-out: MIC veg. cells SAB model medium): < 0.3 µg/mL; MIC ([3]; ATCC43599, read-out: MIC Veg. cells): < 0.3 µg/mL; MIC ([3]; ATCC43599, read-out: MIC veg. cells flora): < 0.3 µg/mL; MIC ([4]; ATCC43599, 22 h, read-out: MIC spores SAB model medium): < 0.3 µg/mL; MIC ([4]; ATCC43599, read-out: MIC spores): < 0.3 µg/mL; MIC ([4]; ATCC43599, read-out: MIC spores flora): < 0.3 µg/mL; MIC ([1]; ATCC6538, read-out: MIC S. aureus ATCC 6538): 1 µg/mL (≈ 0.69 µM); MIC ([2]; ATCC11778, read-out: MIC B. cereus ATCC 11778): 1 µg/mL (≈ 0.69 µM)
O=C1NC(=O)c2ccc3c4c(ccc1c24)C(=O)N(c1ccccc1)C3=O [20141155PBmol19] | > 100 | > 100 |  |  |  |  |  |  | MIC Veg. cells [3, 13]: 0.01 to 0.03 µg/mL; MIC veg. cells SAB model medium [3, 14]: <0.03 µg/mL; MIC veg. cells flora [3, 15]: 0.15 to 0.3 µg/mL; MIC spores [4, 16]: 0.007 to 0.01 µg/mL; MIC spores SAB model medium [4, 14]: <0.03 µg/mL
O=C1NC(=O)c2ccc3c4c(ccc1c24)C(=O)N(c1ccc(O)cc1)C3=O [20141155PBmol37] | 40 (≈ 112 µM) | 4 (≈ 11.2 µM) | 0.07 to 0.15 (≈ 0.195 to 0.419 µM) | 0.07 to 0.15 (≈ 0.195 to 0.419 µM) | 0.6 to 1.2 (≈ 1.67 to 3.35 µM) | 0.07 to 0.15 (≈ 0.195 to 0.419 µM) | 0.03 to 0.07 (≈ 0.0837 to 0.195 µM) | 0.3 to 0.6 (≈ 0.837 to 1.67 µM) | 
O=C1NC(=O)c2ccc3c4c(ccc1c24)C(=O)N(CCCCO)C3=O [20141155PBmol41] | > 100 | 4 (≈ 11.8 µM) | 0.07 to 0.15 (≈ 0.207 to 0.443 µM) | 0.07 to 0.15 (≈ 0.207 to 0.443 µM) | 0.15 to 0.3 (≈ 0.443 to 0.887 µM) | 0.07 to 0.15 (≈ 0.207 to 0.443 µM) | 0.03 to 0.07 (≈ 0.0887 to 0.207 µM) | 0.15 to 0.3 (≈ 0.443 to 0.887 µM) | 
O=C1NC(=O)c2ccc3c4c(ccc1c24)C(=O)N(c1ccccc1)C3=O [4456-3445 (6739753)] |  |  |  |  |  |  |  | 0.6 to 1.2 (≈ 1.75 to 3.51 µM) | MIC Veg. cells [3, 13]: <0.3* ug/ml; MIC veg. cells SAB model medium [3, 14]: <0.3 µg/mL; MIC veg. cells flora [3, 15]: 0.6 to 1.2 µg/mL; MIC spores [4, 16]: <0.3* ug/ml; MIC spores SAB model medium [4, 14]: <0.3 µg/mL
CC(=O)OCCN1C(=O)c2ccc3c4c(ccc(c24)C1=O)C(=O)NC3=O [20141155PBmol21] | > 100 | 40 (≈ 114 µM) |  | 0.03 to 0.07 (≈ 0.0852 to 0.199 µM) | 0.15 to 0.3 (≈ 0.426 to 0.852 µM) | 0.03 to 0.07 (≈ 0.0852 to 0.199 µM) | 0.01 to 0.03 (≈ 0.0284 to 0.0852 µM) | 0.3 to 0.6 (≈ 0.852 to 1.7 µM) | 
Cc1ncc([N+](=O)[O-])n1CCO [Metronadizol, reference compound] |  |  | < 0.3 | < 0.3 | < 0.3 | < 0.3 | < 0.3 | < 0.3 | 
O=C1NC(=O)c2ccc3c4c(ccc1c24)C(=O)N(c1ccncc1)C3=O [20141155PBmol20] | > 100 | > 100 |  |  |  |  |  |  | 
O=C1NC(=O)c2ccc3c4c(ccc1c24)C(=O)N(c1cccc(O)c1)C3=O [20141155PBmol08] | > 100 | 10 (≈ 27.9 µM) | 0.15 to 0.3 (≈ 0.419 to 0.837 µM) | 0.07 to 0.15 (≈ 0.195 to 0.419 µM) | 0.6 to 1.2 (≈ 1.67 to 3.35 µM) | 0.07 to 0.15 (≈ 0.195 to 0.419 µM) | 0.03 to 0.07 (≈ 0.0837 to 0.195 µM) | 0.6 to 1.2 (≈ 1.67 to 3.35 µM) | 
O=C1NC(=O)c2ccc3c4c(ccc1c24)C(=O)N(c1ccccc1O)C3=O [20141155PBmol10] | 40 (≈ 112 µM) | 4 (≈ 11.2 µM) | 0.3 to 0.6 (≈ 0.837 to 1.67 µM) | 0.3 to 0.6 (≈ 0.837 to 1.67 µM) | 0.15 to 0.3 (≈ 0.419 to 0.837 µM) | 0.3 to 0.6 (≈ 0.837 to 1.67 µM) | 0.15 to 0.3 (≈ 0.419 to 0.837 µM) | > 1.2 | 
